# From patent US11566007B2, “Ras inhibitors” (Revolution Medicines, Inc., priority 2019, dated 2023)
# Read-outs that look alike come from different tables or passages of the source.
# Assays:
# KRAS G13D = KRAS G13D (Homo sapiens (Human), UniProt P01116+P62937, G13D); assay: Ras-Raf (BRAF RBD) disruption / FRET / MOA assay, KRAS G13D; format: biochemical; settings: read-out: IC50* KRAS G13D FRET data
# Summary of the method: (§1)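 A 10-point, 3-fold dilution series topping at 30 μM final was incubated 3 h at 25° C with the Ras/cyclophilin A/BRAF RBD mixture.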
# K-Ras G12C = K-Ras G12C (Homo sapiens (Human), UniProt P01116+P62937, G12C); assay: Ras-Raf (BRAF RBD) disruption / FRET / MOA assay, KRAS G12C; format: biochemical; settings: KRAS G12C; Ras-Raf disruption/FRET/MOA assay; read-out: IC50* KRAS G12C FRET data
# Summary of the method: as §1
# KRAS G12V = KRAS G12V (Homo sapiens (Human), UniProt P01116+P62937, G12V); assay: Ras-Raf (BRAF RBD) disruption / FRET / MOA assay, KRAS G12V; format: biochemical; settings: read-out: IC50* KRAS G12V FRET data
# Summary of the method: as §1
# NRAS G12C = NRAS G12C (Homo sapiens (Human), UniProt P01111+P62937, G12C); assay: Ras-Raf (BRAF RBD) disruption / FRET / MOA assay, NRAS G12C; format: biochemical; settings: read-out: IC50* NRAS G12C FRET data
# Summary of the method: as §1
# NCI-H358 (K-Ras G12C) = assay: CellTiter-Glo cell viability assay, NCI-H358; format: cell-based, human; settings: Homo sapiens, NCI-H358, 120 h, class symbols
# Summary of the method: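 Steps: compound dispensed into wells holding cells; incubation to day 5; ~30 min room-temperature equilibration; luminescence read; sample signal divided by mean DMSO signal, times 100; four-parameter logistic curve fit.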
# KRAS G12S = KRAS G12S (Homo sapiens (Human), UniProt P01116+P62937, G12S); assay: Ras-Raf (BRAF RBD) disruption / FRET / MOA assay, KRAS G12S; format: biochemical; settings: Ras-Raf disruption/FRET/MOA assay; class symbols; read-out: KRAS G12S FRET data IC50
# Summary of the method: as §1
# K-Ras G13C = K-Ras G13C (Homo sapiens (Human), UniProt P01116+P62937, G13C); assay: Ras-Raf (BRAF RBD) disruption / FRET / MOA assay, KRAS G13C; format: biochemical; settings: KRAS G13C; Ras-Raf disruption/FRET/MOA assay; read-out: IC50* KRAS G13C FRET data
# Summary of the method: as §1
# KRAS G12D = KRAS G12D (Homo sapiens (Human), UniProt P01116+P62937, G12D); assay: Ras-Raf (BRAF RBD) disruption / FRET / MOA assay, KRAS G12D; format: biochemical; settings: Ras-Raf disruption/FRET/MOA assay; class symbols; read-out: KRAS G12D FRET data IC50
# Summary of the method: as §1
# [1] = system: NCI-H358 cells (K-Ras G12C); assay: Potency assay: pERK in NCI-H358 cells; format: cell-based, human; settings: Homo sapiens, NCI-H358; H358 KRAS G12C; read-out: pERK EC50
# Summary of the method: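 Inhibition of cellular pERK after a 4 h treatment, detected by AlphaLISA or In-Cell Western. IC50 from a four-parameter concentration-response fit.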
# KRAS WT = KRAS WT (Homo sapiens (Human), UniProt P01116+P62937); assay: Ras-Raf (BRAF RBD) disruption / FRET / MOA assay, KRAS WT; format: biochemical; settings: read-out: IC50* KRAS WT FRET data
# Summary of the method: as §1
# [2] = NCI-H358, 5-day treatment, read-out: Additional H358 Cell Viability assay data (K-Ras G12C, IC50)
# KRAS G13D, sequence (P01116-2 other isoform, or with tags, fused parts or gaps G13D): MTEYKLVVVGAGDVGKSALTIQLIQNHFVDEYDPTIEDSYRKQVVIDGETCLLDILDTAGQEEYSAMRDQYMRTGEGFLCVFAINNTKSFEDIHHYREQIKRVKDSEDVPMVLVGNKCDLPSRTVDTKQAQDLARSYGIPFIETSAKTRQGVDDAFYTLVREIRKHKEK
# KRAS G13D, sequence (P62937 whole entry): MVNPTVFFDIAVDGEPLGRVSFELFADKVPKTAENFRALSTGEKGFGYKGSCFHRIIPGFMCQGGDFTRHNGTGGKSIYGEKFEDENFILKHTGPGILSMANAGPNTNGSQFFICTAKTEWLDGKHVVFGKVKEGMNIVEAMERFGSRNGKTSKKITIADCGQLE
# KRAS G12D, sequence (P01116-2 other isoform, or with tags, fused parts or gaps G12D): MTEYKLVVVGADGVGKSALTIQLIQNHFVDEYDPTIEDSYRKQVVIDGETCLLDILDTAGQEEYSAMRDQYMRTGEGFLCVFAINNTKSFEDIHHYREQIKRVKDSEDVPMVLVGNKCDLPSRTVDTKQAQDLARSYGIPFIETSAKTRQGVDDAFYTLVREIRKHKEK
# KRAS G12D, sequence (P62937 whole entry): as the sequence (P62937 whole entry) above
# KRAS G12S, sequence (P01116-2 other isoform, or with tags, fused parts or gaps G12S): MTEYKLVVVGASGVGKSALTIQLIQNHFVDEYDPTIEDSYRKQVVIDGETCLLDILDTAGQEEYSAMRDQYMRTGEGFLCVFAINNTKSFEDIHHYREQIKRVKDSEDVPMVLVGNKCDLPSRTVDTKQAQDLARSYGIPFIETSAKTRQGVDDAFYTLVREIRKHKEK
# KRAS G12S, sequence (P62937 whole entry): as the sequence (P62937 whole entry) above
# KRAS WT, sequence (P01116-2 other isoform, or with tags, fused parts or gaps): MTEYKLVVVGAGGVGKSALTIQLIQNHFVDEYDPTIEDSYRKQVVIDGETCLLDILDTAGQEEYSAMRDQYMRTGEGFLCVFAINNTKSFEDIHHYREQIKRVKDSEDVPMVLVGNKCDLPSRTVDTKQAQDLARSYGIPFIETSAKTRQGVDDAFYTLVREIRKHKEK
# KRAS WT, sequence (P62937 whole entry): as the sequence (P62937 whole entry) above
# K-Ras G12C, sequence (P01116-2 other isoform, or with tags, fused parts or gaps G12C): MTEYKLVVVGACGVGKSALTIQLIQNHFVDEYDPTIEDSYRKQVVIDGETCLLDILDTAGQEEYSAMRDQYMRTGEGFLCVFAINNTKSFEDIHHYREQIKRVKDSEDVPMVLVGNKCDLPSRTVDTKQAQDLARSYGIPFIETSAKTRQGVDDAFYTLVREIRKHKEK
# K-Ras G12C, sequence (P62937 whole entry): as the sequence (P62937 whole entry) above
# NRAS G12C, sequence (P01111 whole entry G12C): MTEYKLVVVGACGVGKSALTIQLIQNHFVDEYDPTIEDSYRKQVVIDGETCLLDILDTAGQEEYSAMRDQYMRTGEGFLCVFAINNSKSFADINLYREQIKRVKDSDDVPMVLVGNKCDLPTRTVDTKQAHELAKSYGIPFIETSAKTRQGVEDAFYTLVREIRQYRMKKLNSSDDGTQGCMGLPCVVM
# NRAS G12C, sequence (P62937 whole entry): as the sequence (P62937 whole entry) above
# KRAS G12V, sequence (P01116-2 other isoform, or with tags, fused parts or gaps G12V): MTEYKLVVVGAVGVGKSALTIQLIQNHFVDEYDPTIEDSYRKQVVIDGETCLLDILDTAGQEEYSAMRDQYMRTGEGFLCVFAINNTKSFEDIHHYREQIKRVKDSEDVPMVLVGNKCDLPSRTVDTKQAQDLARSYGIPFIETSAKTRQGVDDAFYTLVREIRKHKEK
# KRAS G12V, sequence (P62937 whole entry): as the sequence (P62937 whole entry) above
# K-Ras G13C, sequence (P01116-2 other isoform, or with tags, fused parts or gaps G13C): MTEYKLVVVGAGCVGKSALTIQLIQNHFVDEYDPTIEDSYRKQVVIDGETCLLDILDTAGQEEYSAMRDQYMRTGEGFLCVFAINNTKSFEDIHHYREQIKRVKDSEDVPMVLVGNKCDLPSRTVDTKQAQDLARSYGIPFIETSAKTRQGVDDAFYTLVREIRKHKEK
# K-Ras G13C, sequence (P62937 whole entry): as the sequence (P62937 whole entry) above
SMILES,IC50 (KRAS G13D) [nM],IC50 (K-Ras G12C) [nM],IC50 (KRAS G12V) [nM],IC50 (NRAS G12C) [nM],IC50 (NCI-H358 (K-Ras G12C); [2]) [µM],IC50 (KRAS G12S) [nM],IC50 (K-Ras G13C) [nM],IC50 (KRAS G12D) [nM],EC50 [1] [nM],IC50 (KRAS WT) [nM],"IC50 (NCI-H358 (K-Ras G12C); read-out: Additional H358 Cell Viability assay data (K-Ras G12C, IC50, uM), NCI-H358, 5-day treatment) [µM]"
CCn1c(-c2cccnc2[C@H](C)OC)c2c3cc(ccc31)-c1cc(O)cc(c1)C[C@H](NC(=O)[C@H](C(C)C)N(C)C(=O)[C@H]1CCN(C(=O)C#CCOC)C1)C(=O)N1CCC[C@H](N1)C(=O)OCC(C)(C)C2 [Example A266],100 to 1000,< 10,10 to 100,< 10,< 0.01,10 to 100,10 to 100,100 to 1000,< 5000,100 to 1000,
C=CC(=O)N1CC[C@H](C(=O)N(C)[C@H](C(=O)N[C@@H]2C(=O)N3CCC[C@H](N3)C(=O)OCC(C)(C)Cc3c(-c4cncnc4)n(CC)c4ccc(cc34)-c3cccc(c3)[C@H]2O)C(C)C)C1 [Example A272],> 10000,1000 to 10000,> 10000,> 10000,> 1,> 10000,> 10000,> 10000,< 5000,> 10000,
C=CC(=O)N1CC[C@H](C(=O)N(C)[C@H](C(=O)N[C@H]2Cc3cc(O)cc(c3)-c3ccc4c(c3)c(c(-c3cnccc3[C@@H](OC)C3CC3)n4CC)CC(C)(C)COC(=O)[C@@H]3CCCN(N3)C2=O)C(C)C)C1 [Example A274],> 10000,1000 to 10000,> 10000,1000 to 10000,0.1 to 1,> 10000,> 10000,> 10000,< 5000,> 10000,
CCn1c(-c2cccnc2[C@H](C)OC)c2c3cc(ccc31)-c1csc(n1)C[C@H](NC(=O)[C@H](C(C)C)N(C)C(=O)[C@H]1CCC(C(=O)/C=C/CN(C)C)C1)C(=O)N1CCC[C@H](N1)C(=O)OCC(C)(C)C2 (stereo partly drawn) [Example A282],1000 to 10000,100 to 1000,1000 to 10000,100 to 1000,0.01 to 0.1,1000 to 10000,1000 to 10000,1000 to 10000,< 5000,1000 to 10000,
C=CC(=O)N1CCC2(CCN([C@H](C(=O)N[C@H]3Cc4cc(O)cc(c4)-c4ccc5c(c4)c(c(-c4cccnc4[C@H](C)OC)n5CC)CC(C)(C)COC(=O)[C@@H]4CCCN(N4)C3=O)C(C)C)C2=O)C1 (stereo partly drawn) [Example A295],100 to 1000,10 to 100,10 to 100,10 to 100,< 0.01,10 to 100,10 to 100,100 to 1000,< 5000,10 to 100,
C=CS(=O)(=O)N1CCC2(CCN([C@H](C(=O)N[C@H]3Cc4cc(O)cc(c4)-c4ccc5c(c4)c(c(-c4cccnc4[C@H](C)OC)n5CC)CC(C)(C)COC(=O)[C@@H]4CCCN(N4)C3=O)C(C)C)C2=O)C1 (stereo partly drawn) [Example A298],10 to 100,< 10,10 to 100,< 10,< 0.01,10 to 100,< 10,100 to 1000,< 5000,10 to 100,
CCn1c(-c2cccnc2[C@H](C)OC)c2c3cc(ccc31)-c1cccc(c1)C[C@H](NC(=O)[C@H](C(C)C)N(C)C(=O)[C@H]1CCN(C(=O)C#C[C@]3(C)CCCN3C)C1)C(=O)N1CCC[C@H](N1)C(=O)OCC(C)(C)C2 [Example A317],> 10000,< 10,1000 to 10000,10 to 100,< 0.01,1000 to 10000,1000 to 10000,> 10000,< 5000,1000 to 10000,
C=CC(=O)N1C2CC1CN(C(=O)N(C)[C@H](C(=O)N[C@H]1Cc3nc(cs3)-c3ccc4c(c3)c(c(-c3cccnc3[C@H](C)OC)n4CC)CC(C)(C)COC(=O)[C@@H]3CCCN(N3)C1=O)C(C)C)C2 [Example A408],1000 to 10000,100 to 1000,100 to 1000,100 to 1000,,100 to 1000,100 to 1000,1000 to 10000,< 5000,100 to 1000,0.01 to 0.1
C=CC(=O)N1CC[C@H](C(=O)N(C)[C@H](C(=O)N[C@H]2Cc3csc(n3)-c3ccc4c(c3)c(c(-c3cc(N5CCN(C)CC5)cnc3[C@H](C)OC)n4CC(F)(F)F)CC(C)(C)COC(=O)[C@@H]3CCCN(N3)C2=O)C(C)C)C1 [Example A410],100 to 1000,10 to 100,100 to 1000,10 to 100,< 0.01,100 to 1000,100 to 1000,1000 to 10000,< 5000,100 to 1000,
C=CC(=O)N1CC2CCC1CN2C(=O)N(C)[C@H](C(=O)N[C@H]1Cc2nc(cs2)-c2ccc3c(c2)c(c(-c2cccnc2[C@H](C)OC)n3CC)CC(C)(C)COC(=O)[C@@H]2CCCN(N2)C1=O)C(C)C [Example A420],1000 to 10000,100 to 1000,100 to 1000,100 to 1000,0.01 to 0.1,100 to 1000,100 to 1000,1000 to 10000,< 5000,100 to 1000,
CCn1c(-c2cccnc2[C@H](C)OC)c2c3cc(ccc31)-c1cccc(c1)C[C@H](NC(=O)[C@H](C(C)C)N(C)C(=O)[C@H]1CCN(C(=O)/C=C/CF)C1)C(=O)N1CCC[C@H](N1)C(=O)OCC(C)(C)C2 [Example A449],1000 to 10000,100 to 1000,1000 to 10000,100 to 1000,0.01 to 0.1,1000 to 10000,100 to 1000,> 10000,< 5000,1000 to 10000,
C=CC(=O)N1CCC2(C1)OCN([C@H](C(=O)N[C@H]1Cc3cccc(c3)-c3ccc4c(c3)c(c(-c3cccnc3[C@H](C)OC)n4CC)CC(C)(C)COC(=O)[C@@H]3CCCN(N3)C1=O)C(C)C)C2=O (stereo partly drawn) [Example A459],1000 to 10000,10 to 100,1000 to 10000,10 to 100,0.01 to 0.1,1000 to 10000,100 to 1000,1000 to 10000,< 5000,1000 to 10000,
CCn1c(-c2cccnc2[C@H](C)OC)c2c3cc(ccc31)-c1cccc(c1)C[C@H](NC(=O)[C@H](C(C)C)N(C)C(=O)[C@@H]1CCN(C(=O)C#CC(C)(C)N3CCC3)C1)C(=O)N1CCC[C@H](N1)C(=O)OCC(C)(C)C2 [Example A476],1000 to 10000,10 to 100,1000 to 10000,10 to 100,< 0.01,1000 to 10000,100 to 1000,1000 to 10000,< 5000,1000 to 10000,
C=CC(=O)N1CC(OCC(C(=O)N[C@H]2Cc3cccc(c3)-c3ccc4c(c3)c(c(-c3cccnc3[C@H](C)OC)n4CC)CC(C)(C)COC(=O)[C@@H]3CCCN(N3)C2=O)C(C)C)C1 (stereo partly drawn) [Example A483],> 10000,100 to 1000,1000 to 10000,100 to 1000,< 0.01,> 10000,1000 to 10000,> 10000,< 5000,1000 to 10000,
C=CC(=O)N1CC[C@H](C(=O)N(C)[C@H](C(=O)N[C@H]2Cc3cccc(c3)-c3ccc4c(c3)c(c(-c3cccnc3[C@H](C)OC)n4CC#N)CC(C)(C)COC(=O)[C@@H]3CCCN(N3)C2=O)C(C)C)C1 [Example A510],1000 to 10000,10 to 100,1000 to 10000,10 to 100,0.01 to 0.1,1000 to 10000,100 to 1000,1000 to 10000,< 5000,1000 to 10000,
